Assay results from patent publication US20260151425A1, “COMPOSITIONS AND METHODS OF USE THEREOF” (SYNEDGEN, INC., priority 2020, published 2026).
Read-outs that look alike come from different tables or passages of the source.

Experiments:
[1] = system: M. abscessus subsp. abscessus NTM 0079; assay: MIC of CF NTM clinical isolates; format: cell-based; details: for CLSI clinical breakpoint category: NTM 0079; for MIC: M. abscessus subsp. abscessus NTM 0079
[2] = system: M. avium complex NTM 0260; assay: MIC of CF NTM clinical isolates; format: cell-based; details: for CLSI clinical breakpoint category: NTM 0260; for MIC: M. avium complex NTM 0260
[3] = system: M. abscessus subsp. bolletii NTM 0003; assay: MIC of CF NTM clinical isolates; format: cell-based; details: for CLSI clinical breakpoint category: NTM 0003; for MIC: M. abscessus subsp. bolletii NTM 0003
[4] = system: M. abscessus subsp. abscessus NTM 0082; assay: MIC of CF NTM clinical isolates; format: cell-based; details: for CLSI clinical breakpoint category: NTM 0082; for MIC: M. abscessus subsp. abscessus NTM 0082
[5] = system: M. avium complex NTM 0813; assay: MIC of CF NTM clinical isolates; format: cell-based; details: for CLSI clinical breakpoint category: NTM 0813; for MIC: M. avium complex NTM 0813
MABSC NTM 0082 = assay: 2D checkerboard analysis, antibiotic MIC with PAAG; format: cell-based, Mycobacterium abscessus complex; details: for Fold Change: MIC alone vs MIC with PAAG 128 μg/mL; for MIC: Mycobacteroides abscessus
Method: (§1) PAAG synergy with conventional antibiotics was determined by 2D checkerboard analysis. PAAG's antimicrobial activity and antibiotic potentiation in a biofilm were determined by minimum biofilm eradication concentration (MBEC) and 2D MBEC checkerboard assays to determine antibiotic potentiation with PAAG within a biofilm.

M. gordonae NTM 0274 = assay: MIC of CF NTM clinical isolates; format: cell-based; details: for CLSI clinical breakpoint category: NTM 0274; for MIC: M. gordonae NTM 0274
MABSC biofilm = assay: 2D MBEC checkerboard assay, antibiotic potentiation in biofilm; format: cell-based, Mycobacterium abscessus complex; details: for Fold Change: MBEC alone vs MBEC with PAAG 128 μg/mL; for MBEC: antibiotic alone; for MBEC with PAAG: antibiotic with PAAG at half of its MBEC (128 μg/mL)
Method: as §1

MAC NTM 0260 = assay: 2D checkerboard analysis, antibiotic MIC with PAAG; format: cell-based, Mycobacterium avium complex; details: for Fold Change: MIC alone vs MIC with PAAG 8 μg/mL; for MIC: Mycobacterium avium
Method: as §1

MAC biofilm = assay: 2D MBEC checkerboard assay, antibiotic potentiation in biofilm; format: cell-based, Mycobacterium avium complex; details: for Fold Change: MBEC alone vs MBEC with PAAG 8 μg/mL; for MBEC: antibiotic alone; for MBEC with PAAG: antibiotic with PAAG at half of its MBEC (8 μg/mL)
Method: as §1
In addition, PAAG potentiates antibiotics against NTM in biofilms as measured with minimum biofilm eradication concentration (MBEC) (Table 3).

[6] = system: biofilm cultures of Mycobacteria isolates; assay: Static biofilm assay with crystal violet staining; format: cell-based; details: 48 hour biofilms treated for an hour; increasing dose of PAAG
Method: (§2) Biofilm cultures of Mycobacteria isolates were grown for 48 hours in static 96-well plates at 37 C on a static incubator. The biofilm cultures were treated using PAAG alone and in formulation with 1.38% glycerol for an hour. The MBEC assay measured the logarithmic reduction in the growth of biofilm by serial dilution and spot plate method. […] The static assay was used to measure the decrease in biofilm density as the dose of PAAG increases by staining each well with crystal violet and measuring the biofilm densities at 590 nm.
The biofilm biomass was quantified using crystal violet staining in static TCP biofilm assay.

NTM biofilms = assay: Optical measurement of biofilm thickness; format: cell-based; details: PAAG at 50, 100 and 200 μg/mL
Excerpt: The biofilm thickness was optically measured assuming the Refractive Index (RI) of the biofilm was equal to water per Bakke & Olsson, et al., (1986).

MAC cultures = assay: Modified time kill analysis with 7-day recovery phase; format: cell-based, Mycobacterium avium complex; details: PAAG 250 μg/mL
Method: For MAC cultures, a modified time kill analysis was performed over a period of 21 days and included a 7-day recovery phase in antimicrobial free media post treatment. PAAG treatment led to eradication of MAC cell population within 4 days of treatment.

MAC persister cells = assay: PAAG treatment of antibiotic induced NTM persisters; format: cell-based, Mycobacterium avium complex
Excerpt: (§3) The cultures were then pelleted, washed free of antibiotics and resuspended in broth free of any antimicrobials (i.e., recovery phase).

[7] = system: biofilm cultures of Mycobacteria isolates; assay: MBEC assay, logarithmic reduction of biofilm growth; format: cell-based; details: 48 hour biofilms treated for an hour; varies from strain to strain
Method: as §2

MABSC cultures = assay: Modified time kill analysis with 7-day recovery phase; format: cell-based, Mycobacterium abscessus complex; details: PAAG 250 μg/mL
Method: For MABSC cultures, a modified time kill analysis was performed over a period of 12 days and included a 7-day recovery phase in antimicrobial free media post treatment. PAAG treatment led to eradication of MABSC cell population within 48 hours of treatment.

MABSC persister cells = assay: PAAG treatment of antibiotic induced NTM persisters; format: cell-based, Mycobacterium abscessus complex
Excerpt: as §3

[8] = Mycobacteroides abscessus, read-out: MIC
[9] = Mycobacterium avium, read-out: MIC
[10] = antibiotic alone, read-out: MIC
[11] = antibiotic with PAAG at half of its MIC (128 μg/mL), read-out: MIC with PAAG
[12] = Mycobacterium gordonae, NTM0274, read-out: MIC
[13] = antibiotic alone, MAC NTM 0260, read-out: MIC

| Compound | MIC [1, 8] [µg/mL] | MIC [2, 9] [µg/mL] | MIC [3, 8] [µg/mL] | MIC [4, 8] [µg/mL] | MIC [5, 9] [µg/mL] | Fold Change (MABSC NTM 0082) | MIC (MABSC NTM 0082; [10]) [µg/mL] | MIC (MABSC NTM 0082; [11]) [µg/mL] | MIC (M. gordonae NTM 0274; [12]) [µg/mL] | Fold Change (MABSC biofilm) | MBEC (MABSC biofilm) [µg/mL] | MBEC with PAAG (MABSC biofilm) [µg/mL] | Fold Change (MAC NTM 0260; MAC NTM 0260) | MIC (MAC NTM 0260; [13]) [µg/mL] | MIC (MAC NTM 0260; read-out: MIC with PAAG) [µg/mL] | Fold Change (MAC biofilm) | MBEC (MAC biofilm) [µg/mL] | MBEC with PAAG (MAC biofilm) [µg/mL] | further results |
| --- | --- | --- | --- | --- | --- | --- | --- | --- | --- | --- | --- | --- | --- | --- | --- | --- | --- | --- | --- |
| NCC[C@H](O)C(=O)N[C@@H]1C[C@H](N)[C@@H](O[C@H]2O[C@H](CN)[C@@H](O)[C@H](O)[C@H]2O)[C@H](O)[C@H]1O[C@H]1O[C@H](CO)[C@@H](O)[C@H](N)[C@H]1O [Amikacin] | 8 | 2 | 4 | 8 | 2 | 533 | 32 | 0.06 | < 0.0625 | >512 | >1024 | 2 |  |  |  |  |  |  | CLSI clinical breakpoint category ([1]; Amikacin breakpoints): (R) (≥64 μg/mL (R) for Amikacin); CLSI clinical breakpoint category ([2]; Amikacin breakpoints): (S) (≤16 μg/mL (S)); CLSI clinical breakpoint category ([3]; Amikacin breakpoints): (S) (≤16 μg/mL (S)); CLSI clinical breakpoint category ([4]; Amikacin breakpoints): (R) (≥64 μg/mL (R) for Amikacin); CLSI clinical breakpoint category ([5]; Amikacin breakpoints): (S) (≤16 μg/mL (S)); CLSI clinical breakpoint category (M. gordonae NTM 0274; Amikacin breakpoints): (S) (≤16 μg/mL (S)) |
| CC[C@H]1OC(=O)[C@H](C)[C@@H](O[C@H]2C[C@@](C)(OC)[C@@H](O)[C@H](C)O2)[C@H](C)[C@@H](O[C@@H]2O[C@H](C)C[C@H](N(C)C)[C@H]2O)[C@](C)(O)C[C@@H](C)CN(C)[C@H](C)[C@@H](O)[C@]1(C)O [Azithromycin] | 32 | 2 | 32 | 32 | 2 |  |  |  | 2 |  |  |  | 4 | 2 | 0.5 | 8 | 8 | 1 | CLSI clinical breakpoint category ([1]; Azithromycin breakpoints): (R) (≥8 μg/mL (R)); CLSI clinical breakpoint category ([2]; Azithromycin breakpoints): (I) (4 μg/mL (I)); CLSI clinical breakpoint category ([3]; Azithromycin breakpoints): (R) (≥8 μg/mL (R)); CLSI clinical breakpoint category ([4]; Azithromycin breakpoints): (R) (≥8 μg/mL (R)); CLSI clinical breakpoint category ([5]; Azithromycin breakpoints): (I) (4 μg/mL (I)); CLSI clinical breakpoint category (M. gordonae NTM 0274; Azithromycin breakpoints): (I) (4 μg/mL (I)) |
| CC[C@@H](CO)NCCN[C@@H](CC)CO [Ethambutol] | 32 | 2 | 8 | 32 | 2 | 128 | 32 | 0.25 | 2 | >512 | >1024 | 2 | 2 | 2 | 1 | >32 | >8 | <0.25 | CLSI clinical breakpoint category ([1]; Ethambutol breakpoints): R (≥2 μg/mL (R) for Ethambutol); CLSI clinical breakpoint category ([2]; Ethambutol breakpoints): R (≥2 μg/mL (R) for Ethambutol); CLSI clinical breakpoint category ([3]; Ethambutol breakpoints): R (≥2 μg/mL (R) for Ethambutol); CLSI clinical breakpoint category ([4]; Ethambutol breakpoints): R (≥2 μg/mL (R) for Ethambutol); CLSI clinical breakpoint category ([5]; Ethambutol breakpoints): R (≥2 μg/mL (R) for Ethambutol); CLSI clinical breakpoint category (M. gordonae NTM 0274; Ethambutol breakpoints): R (≥2 μg/mL (R) for Ethambutol) |
| poly(acetyl, arginyl) glucosamine [PAAG] |  |  |  |  |  |  |  |  |  |  |  |  |  |  |  |  |  |  | biofilm density (crystal violet, 590 nm) [6]: dose dependent reduction in the density of the bacteria; MIC [1]: 250 µg/mL; biofilm thickness (NTM biofilms): reduction in BCC biofilm thickness in a dose dependent manner; bacterial viability at depth in biofilm (NTM biofilms; depths >5-10 μm): significantly decreased bacterial viability; MIC [2]: 16 µg/mL; MIC [3]: 128 µg/mL; MIC [4]: 250 µg/mL; MIC [5]: 16 µg/mL; time to eradication of MAC cell population (MAC cultures; time kill over 21 days): ≤ 4 days; killing outcome (MAC cultures; slow growing MAC): complete eradication; CFU/mL after PAAG treatment of persisters (MAC persister cells; MAC cultures surviving antibiotic treatment, PAAG for 10 days): 0 CFU/mL; regrowth of persisters after PAAG treatment (MAC persister cells; MAC, recovery in fresh broth 24 days): none of the persisters in either strain showed regrowth; log reduction in biofilm compared to the control [7]: two to three log reduction; time to eradication of MABSC cell population (MABSC cultures; time kill over 12 days): ≤ 48 h; killing outcome (MABSC cultures; rapid growing MABSC): complete eradication; MIC (M. gordonae NTM 0274): 32 µg/mL; CFU/mL after PAAG treatment of persisters (MABSC persister cells; MABSC cultures surviving antibiotic treatment, PAAG for 4 days): 0 CFU/mL; regrowth of persisters after PAAG treatment (MABSC persister cells; MABSC, recovery in fresh broth 12 days): none of the persisters in either strain showed regrowth |
| CO[C@H]1/C=C/O[C@@]2(C)Oc3c(C)c(O)c4c(O)c(c(/C=N/N5CCN(C)CC5)c(O)c4c3C2=O)NC(=O)/C(C)=C\C=C\[C@H](C)[C@H](O)[C@@H](C)[C@@H](O)[C@@H](C)[C@H](OC(C)=O)[C@@H]1C [Rifampicin] | 2 | 4 | 8 | 2 | 4 | 21 | 2 | 0.06 | 2 | >512 | >1024 | 2 | 4 | 4 | 1 | >32 | 8 | <0.25 | CLSI clinical breakpoint category ([1]; Rifampicin breakpoints): R (≥1 μg/mL (R) for Rifampicin); CLSI clinical breakpoint category ([2]; Rifampicin breakpoints): R (≥1 μg/mL (R) for Rifampicin); CLSI clinical breakpoint category ([3]; Rifampicin breakpoints): R (≥1 μg/mL (R) for Rifampicin); CLSI clinical breakpoint category ([4]; Rifampicin breakpoints): R (≥1 μg/mL (R) for Rifampicin); CLSI clinical breakpoint category ([5]; Rifampicin breakpoints): R (≥1 μg/mL (R) for Rifampicin); CLSI clinical breakpoint category (M. gordonae NTM 0274; Rifampicin breakpoints): R (≥1 μg/mL (R) for Rifampicin) |
| O=C(O)c1cn(C2CC2)c2cc(N3CCNCC3)c(F)cc2c1=O [Ciprofloxacin] |  |  |  |  |  |  |  |  |  |  | >1024 |  |  |  |  |  |  |  |  |
